Source: US20250383357A1, “NOVEL FLUORESCENT DYES AND POLYMERS FROM DIHYDROPHENANTHRENE DERIVATIVES” (Beckman Coulter, Inc., priority 2022, published 2025)

Test: Fluorescence properties of DHP-cyanine dyes (excitation/absorbance and emission maxima, extinction coefficient)
Format: physicochemical
Conditions: for λem (emission wavelength) / λex (maximum excitation wavelength): Table 1
From the text: The term “absorbance maxima” or “Abs λ max” or “max λ abs” refer to wavelength of maximum absorbance measured by UV Vis spectroscopy.

Row | SMILES | λem (emission wavelength) | λex (maximum excitation wavelength) | Abs max (purified dye) | emission max (purified dye) | extinction coefficient (purified dye)
1 | CC1(C)Cc2c3c(cc4c2C(C)(C)C(/C=C/C=C/C=C2\N(CCCCCC(=O)O)c5ccc(S(=O)(=O)O)cc5C2(C)C)=[N+]4CCCS(=O)(=O)O)S(=O)(=O)c2cc(S(=O)(=O)O)cc1c2-3 [Compound 36, 2-((l1-oxidaneyl)dioxo-l6-sulfaneyl)-7-((1E,3E)-5-((Z)-5-((l1-oxidaneyl)dioxo-l6-sulfaneyl)-1-(5-carboxypentyl)-3,3-dimethylindolin-2-ylidene)penta-1,3-dien-1-yl)-6-(3-((l1-oxidaneyl)dioxo-l6-sulfaneyl)propyl)-8,8,10,10-tetramethyl-9,10-dihydro-8H-thieno[2′,3′,4′,5′:4,5]phenanthro[2,1-b]pyrrol-6-ium 4,4-dioxide] | 683 nm | 663 nm | 663 nm | 683 nm | –
2 | CC1(C)C(/C=C/C=C/C=C2\N(CCCS(=O)(=O)O)c3ccc(C(=O)O)cc3C2(C)C)=[N+](CCCS(=O)(=O)O)c2cc3c4c(c21)CCc1cc(S(=O)(=O)[O-])cc(c1-4)S3(=O)=O [Compound 25, (Z)-2-((2E,4E)-5-(2-((l1-oxidaneyl)dioxo-l6-sulfaneyl)-6-(3-((l1-oxidaneyl)dioxo-l6-sulfaneyl)propyl)-8,8-dimethyl-4,4-dioxido-9,10-dihydro-8H-6l4-thieno[2′,3′,4′,5′:4,5]phenanthro[2,1-b]pyrrol-7-yl)penta-2,4-dien-1-ylidene)-1-(3-((l1-oxidaneyl)dioxo-l6-sulfaneyl)propyl)-3,3-dimethylindoline-5-carboxylic Acid] | 686 nm | 666 nm | 666 nm | 686 nm | 150450 M⁻¹ cm⁻¹
